Measured values taken from patent publication US20100120787A1, “MODIFICATION OF AMYLOID-BETA LOAD IN NON-BRAIN TISSUE” (MODGENE, LLC, priority 2008, published 2010).
Where two headings read alike, the source gives them in different places.

Tests used:
[1] = cited from earlier work
[2] = pH 8; cited from earlier work
[3] = humans; cited from earlier work
[4] = statement in words, cited from earlier work
[5] = cited from earlier work; remark: listed apart in the source
[6] = system: Aβ hexamers in plasma; assay: Plasma (blood) Aβ levels in mice after intraperitoneal STI-571, Western blot/ELISA; format: in vivo, mouse
Protocol: […]. Wild-type C57Bl/6 and DBA/2J male mice (age 8-12 weeks) were administered drug or vehicle twice daily for 7 days by intraperitoneal injection. […]. […] See, for example, Gleevec Prescribing Information 2003 revision T2003-09; Printed in U.S.A. 89019001 (Novartis), incorporated herein by reference.
Animals were sacrificed 12 hr after the last injection. Individual mice were anesthetized with isoflurane and blood samples (100-300ul) taken by cardiac puncture with heparinized syringes. Samples were placed on ice for 30 minutes in the presence of EDTA and then centrifuged for 20 minutes at 16,000×g at 4° C. The plasma fraction was removed and stored at −80° C. Brains were removed and frozen rapidly on dry ice and stored at −80° C.
Detection of mouse Aβ1-40 in blood and brain samples was performed by using a commercially available immunoassay kit (Biosource mouse Aβ1-40, Catalog No. KMB3481, Invitrogen, Carlsbad, Calif.) or by Western blot. Mouse brain samples were prepared by homogenizing brain tissue in a polytron in the presence of 5M guanidine HCl and 50 mM Tris HCl, pH 8.0 as described in the assay protocol. […]
Blood samples were diluted 1:5 in standard diluent buffer. Samples were assayed in duplicate and OD450 measured on a Tecan infinite 2000 plate reader. […]

[7] = system: primary neurons prepared from cerebral cortex; details: embryonic day 18 rats; cited from earlier work
[8] = system: Notch signaling; details: while reducing Aβ production; cited from earlier work
[9] = system: Aβ accumulation in brain; details: intrathecal delivery by osmotic minipumps, guinea pigs; cited from earlier work

Molecule: Cc1ccc(NC(=O)c2ccc(CN3CCNCC3)cc2)cc1Nc1nccc(-c2cccnc2)n1 [N-desmethyl derivative]
- plasma AUC of metabolite relative to the AUC for imatinib ([1]; humans): about 15%
- elimination half-life ([1]; oral administration in healthy volunteers): ~40 h

Molecule: COc1cc([S+](C)[O-])ccc1-c1nc2ncccc2[nH]1 (centres unmarked) [ARL115, sulmazole]
- log P [2]: 1.17
- CNS side effects [3]: lack the CNS side effects

Molecule: Cc1ccc(NC(=O)c2ccc(CN3CCN(C)CC3)cc2)cc1Nc1nccc(-c2cccnc2)n1 [STI-571]
- penetration of the blood-brain barrier [4]: poor penetration of the blood-brain barrier
- penetration of the blood-brain barrier ([4]; listed as GLEEVEC/STI-571): poor penetration of the blood-brain barrier
- penetration of the blood-brain barrier ([4]; listed as imatinib): does not substantially penetrate the blood brain barrier
- absorption after oral administration ([5]; human, in vivo, po): rapidly absorbed
- mean AUC versus dose ([5]; human, in vivo): did not increase proportionally with increasing dose
- Cmax (time) ([5]; pediatric patients, oral): 2 to 4 h
- reduction of plasma levels of Aβ ([6]; 20 mg/kg IP twice daily for 7 days, B6 mice): approximately 50%
- reduction of circulating Aβ ([6]; highest dose (100 mg/kg) IP twice daily for 7 days, young D2 mice): approximately 75%

Molecule: COc1ccc(-c2nc3ncccc3[nH]2)c(OC)c1.Cl [ARL-57]
- log P [2]: 2.59
- CNS side effects [3]: spectacular bright color vision

Molecule: 6-(2,6-dichlorophenyl)-8-methyl-2-(methylsulfanylphenyl-amino)-8H-pyrido[2,3-d]pyrimidin-7-one [inhibitor 2]
- production of Aβ [7]: reduce production of Aβ
- effect on Notch signaling [8]: without affecting Notch signaling
- Aβ accumulation in brain [9]: decrease in Aβ accumulation in brain
